The target of the first test is T1, α4β1 integrin (Homo sapiens, UniProt P05556+P13612).
T1 construct: endogenous in cells; host or cells: Ramos cells
T1 sequence (P13612 34-1032): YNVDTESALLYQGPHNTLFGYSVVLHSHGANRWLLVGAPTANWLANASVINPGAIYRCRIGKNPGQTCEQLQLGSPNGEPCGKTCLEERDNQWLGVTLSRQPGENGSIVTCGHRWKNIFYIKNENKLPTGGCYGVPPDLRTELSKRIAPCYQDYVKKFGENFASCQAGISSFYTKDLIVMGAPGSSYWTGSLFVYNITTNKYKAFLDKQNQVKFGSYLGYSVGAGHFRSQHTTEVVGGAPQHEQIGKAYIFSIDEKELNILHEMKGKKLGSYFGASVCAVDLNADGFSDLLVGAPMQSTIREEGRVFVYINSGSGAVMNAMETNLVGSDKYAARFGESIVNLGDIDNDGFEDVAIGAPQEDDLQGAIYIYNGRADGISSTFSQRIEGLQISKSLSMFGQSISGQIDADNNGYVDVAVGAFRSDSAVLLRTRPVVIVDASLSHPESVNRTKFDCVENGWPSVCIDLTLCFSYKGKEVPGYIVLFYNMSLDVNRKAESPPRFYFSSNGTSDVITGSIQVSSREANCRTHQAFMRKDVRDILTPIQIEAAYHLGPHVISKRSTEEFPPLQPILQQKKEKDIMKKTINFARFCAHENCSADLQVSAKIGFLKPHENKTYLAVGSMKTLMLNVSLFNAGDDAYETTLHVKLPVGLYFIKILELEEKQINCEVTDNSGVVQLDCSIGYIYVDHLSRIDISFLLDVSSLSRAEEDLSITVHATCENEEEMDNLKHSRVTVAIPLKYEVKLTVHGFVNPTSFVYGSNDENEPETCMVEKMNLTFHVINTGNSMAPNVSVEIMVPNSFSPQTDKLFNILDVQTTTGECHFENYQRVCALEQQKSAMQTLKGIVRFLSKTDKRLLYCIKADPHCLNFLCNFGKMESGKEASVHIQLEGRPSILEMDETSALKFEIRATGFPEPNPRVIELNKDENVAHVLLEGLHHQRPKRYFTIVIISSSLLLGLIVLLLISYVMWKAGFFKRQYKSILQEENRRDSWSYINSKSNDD
T1 sequence (P05556 21-798): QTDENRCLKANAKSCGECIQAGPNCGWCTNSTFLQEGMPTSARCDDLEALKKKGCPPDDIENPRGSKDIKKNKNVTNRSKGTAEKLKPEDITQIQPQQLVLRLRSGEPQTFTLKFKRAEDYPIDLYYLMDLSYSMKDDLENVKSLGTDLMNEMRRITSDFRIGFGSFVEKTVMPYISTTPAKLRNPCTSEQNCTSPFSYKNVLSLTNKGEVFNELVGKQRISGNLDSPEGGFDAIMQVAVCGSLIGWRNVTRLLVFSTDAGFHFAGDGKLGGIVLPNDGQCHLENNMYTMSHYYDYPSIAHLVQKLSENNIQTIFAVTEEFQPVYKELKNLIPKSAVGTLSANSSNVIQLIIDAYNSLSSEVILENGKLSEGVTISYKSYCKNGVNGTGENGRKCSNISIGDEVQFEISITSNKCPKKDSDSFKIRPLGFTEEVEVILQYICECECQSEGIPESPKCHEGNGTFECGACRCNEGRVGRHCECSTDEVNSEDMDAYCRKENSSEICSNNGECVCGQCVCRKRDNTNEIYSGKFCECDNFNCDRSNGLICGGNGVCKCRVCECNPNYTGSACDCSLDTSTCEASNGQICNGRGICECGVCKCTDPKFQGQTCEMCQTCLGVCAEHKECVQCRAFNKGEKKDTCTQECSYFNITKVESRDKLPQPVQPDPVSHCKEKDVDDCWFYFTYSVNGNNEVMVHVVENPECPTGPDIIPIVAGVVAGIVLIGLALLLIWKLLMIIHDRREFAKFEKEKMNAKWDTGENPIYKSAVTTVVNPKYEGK
Nature of the test: Inhibition of adhesion of calcein AM-labeled Ramos cells to CS1 (fibronectin) peptide-conjugated ovalbumin. The class given is cell-based. To be noted: Ramos; Table 2; compound at a concentration of 100 μM; read-out: % A (percent inhibition of cell adhesion). The method, then: The ability of compounds of the present invention to inhibit binding is determined by a procedure in which a 26-amino acid peptide containing the CS1 sequence of fibronectin with an N-terminal Cys ([…]) was coupled to maleimide activated ovalbumin. Bovine serum albumin (BSA) and CS1 conjugated ovalbumin were coated onto 96-well polystyrene plates at 0.5 mg/ml in TBS (50 mM Tris, pH 7.5; 150 mM NaCl) at 4° C. for 16 hours. The plates were washed three times with TBS and blocked with TBS containing 3% BSA at room temperature for 4 hours. Blocked plates were washed three times in binding buffer (TBS; 1 mM MgCl2; 1 mM CaCl2; 1 mM MnCl2) prior to assay. Ramos cells fluorescently labeled with calcein AM were resuspended in binding buffer (10^7 cells/ml) and diluted 1:2 with same buffer with or without compound. The cells were added immediately to the wells (2.5×10^5 cells/well) and incubated for 30 minutes at 37° C. Following three washes with binding buffer, adherent cells were lysed and quantitated using a fluorometer. IC50 is defined as the dose required to give 50% inhibition. MS in Table 3 stands for Mass Spec. nd stands for not determined in the Tables. A stands for inhibition in Table 2, and the percent inhibition indicates the inhibition of cell adhesion when compound is included in the assay at a concentration of 100 μM. The lower the IC50 value and the greater the percentage of inhibition, the more efficient the compound is at prevention of cell adhesion.
For orientation: inhibition means the share of the control response that was lost under treatment. For the molecule `CCCC[C@@H](C(=O)N[C@@H](CC(=O)O)c1ccc2c(c1)OCO2)N1CCCN(Cc2cccs2)C1=O` [(3S)-3-(1,3-benzodioxol-5-yl)-3-(((2S)-2-(2-oxo-3-(2-thienylmethyl)tetrahydro-1(2H)-pyrimidinyl)hexanoyl)amino)propanoic acid], the inhibition at 100 µM was 100%.
In the case of `CCCC[C@@H](C(=O)N[C@@H](CC(=O)O)c1ccc2c(c1)OCO2)N1CCC(c2cccs2)N(Cc2cccs2)C1=O` (stereo partly drawn) [(3S)-3-(1,3-benzodioxol-5-yl)-3-(((2S)-2-(2-oxo-4-(2-thienyl)-3-(2-thienylmethyl)tetrahydro-1(2H)-pyrimidinyl)hexanoyl)amino)propanoic acid], the inhibition at 100 µM is 100%.

The test is the same for the next values; noted with them: Table 1; Ramos cell adhesion to CS1-conjugated ovalbumin, 30 minutes at 37° C.
What is called IC50 is the concentration that gives 50% inhibition. With `CCCCC(C(=O)N[C@@H](CC(=O)O)c1ccc2c(c1)OCO2)n1cc(C)cc(Cc2ccccc2)c1=O` (mixture of isomers) [Compound 8, (3S)-3-(1,3-benzodioxol-5-yl)-3-((2R,S)-2-(3-benzyl-5-methyl-2-oxo-1(2H)-pyridinyl)hexanoylamino)propanoic acid], the IC50 was 7 nM.
With `CCCCC(C(=O)N[C@@H](CC(=O)O)c1ccc2c(c1)CCO2)n1cc(C)cc(Cc2ccccc2)c1=O` (mixture of isomers) [Compound 12, (3S)-3-((2R,S)-2-(3-benzyl-5-methyl-2-oxo-1(2H)-pyridinyl)hexanoylamino)-3-(2,3-dihydro-1-benzofuran-5-yl)propanoic acid], the half-maximal inhibitory concentration (IC50) is 40 nM.
Regarding `CCCCC(C(=O)N[C@@H](CC(=O)O)c1ccc(C)cc1)n1cc(C)cc(Cc2ccccc2)c1=O` (mixture of isomers) [Compound 13, (3S)-3-((2R,S)-2-(3-benzyl-5-methyl-2-oxo-1(2H)-pyridinyl)hexanoylamino)-3-(4-methylphenyl)propanoic acid], the IC50 is 70 nM.
Regarding `CCCCC(C(=O)N[C@@H](CC(=O)O)c1ccc(F)cc1)n1cc(C)cc(Cc2ccccc2)c1=O` (mixture of isomers) [Compound 14, (3S)-3-((2R,S)-2-(3-benzyl-5-methyl-2-oxo-1(2H)-pyridinyl)hexanoylamino)-3-(4-fluorophenyl)propanoic acid], the IC50 was 150 nM.
Regarding `CCCCC(C(=O)N[C@@H](CC(=O)O)c1ccc2c(c1)OCO2)n1cc(C)cc(Cc2ccc(OC)cc2)c1=O` (mixture of isomers) [Compound 15, (3S)-3-(1,3-benzodioxol-5-yl)-3-((2R,S)-2-(3-(4-methoxybenzyl)-5-methyl-2-oxo-1(2H)-pyridinyl)hexanoylamino)propanoic acid], the IC50 is 30 nM.
For `CCCCC(C(=O)N[C@@H](CC(=O)O)c1ccc2c(c1)OCO2)n1cc(C)cc(Cc2ccc(C)cc2)c1=O` (mixture of isomers) [Compound 16, (3S)-3-(1,3-benzodioxol-5-yl)-3-((2R,S)-2-(3-(4-methylbenzyl)-5-methyl-2-oxo-1(2H)-pyridinyl)hexanoylamino)propanoic acid], the IC50 is 35 nM.
As for `CCCCC(C(=O)N[C@@H](CC(=O)O)c1ccc2c(c1)OCO2)n1cc(C)cc(Cc2ccc(F)cc2)c1=O` (mixture of isomers) [Compound 17, (3S)-3-(1,3-benzodioxol-5-yl)-3-((2R,S)-2-(3-(4-fluorobenzyl)-5-methyl-2-oxo-1(2H)-pyridinyl)hexanoylamino)propanoic acid], the IC50 is 60 nM.
Consider `CCCCC(C(=O)N[C@@H](CC(=O)O)c1ccc2c(c1)OCO2)n1cc(C)cc(Cc2cccc(Cl)c2)c1=O` (mixture of isomers) [Compound 19, (3S)-3-(1,3-benzodioxol-5-yl)-3-((2R,S)-2-(3-(3-chlorobenzyl)-5-methyl-2-oxo-1(2H)-pyridinyl)hexanoylamino)propanoic acid], for which the IC50 was 6 nM.

Staying with this test, now noted: Table 2; Ramos cell adhesion to CS1-conjugated ovalbumin, 30 minutes at 37° C.
In the case of `CCCC[C@@H](C(=O)N[C@@H](CC(=O)O)c1ccc2c(c1)OCO2)N1CCCN(Cc2cccs2)C1=O` [(3S)-3-(1,3-benzodioxol-5-yl)-3-(((2S)-2-(2-oxo-3-(2-thienylmethyl)tetrahydro-1(2H)-pyrimidinyl)hexanoyl)amino)propanoic acid], the IC50 was 5 nM.
In the case of `CCCC[C@@H](C(=O)N[C@@H](CC(=O)O)c1ccc2c(c1)OCO2)N1CCC(c2cccs2)N(Cc2cccs2)C1=O` (stereo partly drawn) [(3S)-3-(1,3-benzodioxol-5-yl)-3-(((2S)-2-(2-oxo-4-(2-thienyl)-3-(2-thienylmethyl)tetrahydro-1(2H)-pyrimidinyl)hexanoyl)amino)propanoic acid], the IC50 is 50 nM.

Still in this test, the particulars now being: Table 3; Ramos cell adhesion to CS1-conjugated ovalbumin, 30 minutes at 37° C.
Regarding `CCCCC(C(=O)N[C@@H](CC(=O)O)c1ccc2c(c1)OCO2)n1cc(Cc2ccccc2)ccc1=O` (stereo partly drawn) [(3S)-3-(1,3-Benzodioxol-5-yl)-3-({2-[2-oxo-5-(phenylmethyl)-1(2H)-pyridinyl]hexanoyl}amino)propanoic acid], the IC50 was 40 nM.
As to `O=C(O)C[C@H](NC(=O)C1(n2cccc(Cc3ccccc3)c2=O)CCCCC1)c1ccc2c(c1)OCO2` [(3S)-3-(1,3-Benzodioxol-5-yl)-3-[({1-[2-oxo-3-(phenylmethyl)-1(2H)-pyridinyl]cyclohexyl}carbonyl)amino]propanoic acid], the IC50 is 50000 nM.
Consider `O=C(O)C[C@H](NC(=O)Cn1cccc(Cc2ccccc2)c1=O)c1ccc2c(c1)OCO2` [(3S)-3-(1,3-benzodioxol-5-yl)-3-({2-[2-oxo-3-(phenylmethyl)-1(2H)-pyridinyl]acetyl}amino)propanoic acid], for which the half-inhibitory concentration (IC50) is 450 nM.
Same read-out and setting: as for `CCC(C(=O)N[C@@H](CC(=O)O)c1ccc2c(c1)OCO2)n1cccc(Cc2ccccc2)c1=O` (stereo partly drawn) [(3S)-3-(1,3-benzodioxol-5-yl)-3-({2-[2-oxo-3-(phenylmethyl)-1(2H)-pyridinyl]butanoyl}amino)propanoic acid], the figure is 30 nM; as for `CCCC(C(=O)N[C@@H](CC(=O)O)c1ccc2c(c1)OCO2)n1cccc(Cc2ccccc2)c1=O` (stereo partly drawn) [(3S)-3-(1,3-benzodioxol-5-yl)-3-({2-[2-oxo-3-(phenylmethyl)-1(2H)-pyridinyl]pentanoyl}amino)propanoic acid], 60 nM; as for `CCCCC(C(=O)N[C@@H](CC(=O)O)c1ccc2c(c1)OCO2)n1c(=O)c(Cc2ccccc2)cc2ccccc21` (stereo partly drawn) [(3S)-3-(1,3-benzodioxol-5-yl)-3-({2-[2-oxo-3-(phenylmethyl)-1(2H)-quinolinyl]hexanoyl}amino)propanoic acid], 2000 nM.
In the case of `O=C(O)C[C@H](NC(=O)Cn1c(=O)n(Cc2ccccc2)c2ccccc21)c1ccc2c(c1)OCO2` [(3S)-3-(1,3-benzodioxol-5-yl)-3-({2-[2-oxo-3-(phenylmethyl)-2,3-dihydro-1H-benzimidazol-1-yl]acetyl}amino)propanoic acid], the IC50 is 200 nM.
Same read-out and setting: to `CCCCC(C(=O)N[C@@H](CC(=O)O)c1ccc2c(c1)OCO2)n1c(=O)n(Cc2ccccc2)c2ccccc21` (stereo partly drawn) [(3S)-3-(1,3-benzodioxol-5-yl)-3-({2-[2-oxo-3-(phenylmethyl)-2,3-dihydro-1H-benzimidazol-1-yl]hexanoyl}amino)propanoic acid] belongs 70 nM; to `CCCCC(C(=O)N[C@@H](CC(=O)O)c1ccc2c(c1)OCO2)n1ccn(Cc2ccccc2)c1=O` (stereo partly drawn) [(3S)-3-(1,3-benzodioxol-5-yl)-3-({2-[2-oxo-3-(phenylmethyl)-2,3-dihydro-1H-imidazol-1-yl]hexanoyl}amino)propanoic acid], 60 nM; to `CCCCC(C(=O)N[C@@H](CC(=O)O)c1ccc2c(c1)OCO2)N1C(=O)N(Cc2ccccc2)Cc2ccccc21` (stereo partly drawn) [(3S)-3-(1,3-benzodioxol-5-yl)-3-({2-[2-oxo-3-(phenylmethyl)-3,4-dihydro-1(2H)-quinazolinyl]hexanoyl}amino)propanoic acid], 400 nM.
`CCCCC(C(=O)N[C@@H](CC(=O)O)c1ccc2c(c1)OCO2)n1cccc(NCc2cccs2)c1=O` (stereo partly drawn) [(3S)-3-(1,3-benzodioxol-5-yl)-3-({2-[2-oxo-3-[(2-thiophenylmethyl)amino]-1(2H)-pyridinyl]hexanoyl}amino)propanoic acid]: the IC50 is 1300 nM.
The same measure, in the same setting: as for `O=C(O)C[C@H](NC(=O)Cc1cccc(Oc2ccccc2)c1)c1ccc2c(c1)OCO2` [(3S)-3-(1,3-benzodioxol-5-yl)-3-({2-[3-(phenyloxy)phenyl]acetyl}amimo)-propanoic acid], the figure is > 100000 nM; as for `CCCCC(C(=O)N[C@@H](CC(=O)O)c1ccc2c(c1)OCO2)n1cc(C)cc(Cc2ccccc2Cl)c1=O` (stereo partly drawn) [(3S)-3-(1,3-benzodioxol-5-yl)-3-({2-[3-[(2-chlorophenyl)methyl]-5-methyl-2-oxo-1(2H)-pyridinyl]hexanoyl}amino)propanoic acid], 10 nM; as for `CCCCC(C(=O)N[C@@H](CC(=O)O)c1ccc2c(c1)OCO2)n1nc(C)cc(Cc2ccccc2)c1=O` (stereo partly drawn) [(3S)-3-(1,3-benzodioxol-5-yl)-3-({2-[3-methyl-6-oxo-5-(phenylmethyl)-1(6H)-pyridazinyl]hexanoyl}amino)propanoic acid], 60 nM.

Staying with this test, now noted: Table 4; Ramos cell adhesion to CS1-conjugated ovalbumin, 30 minutes at 37° C.
In the case of `CCCCC(C(=O)N[C@@H](C(=O)O)c1ccccc1)n1cc(C)cc(Cc2ccccc2)c1=O` (stereo partly drawn) [(2R)-2-({2-[5-methyl-2-oxo-3-(phenylmethyl)-1(2H)-pyridinyl]hexanoyl}amino)-2-phenylethanoic acid], the IC50 is > 10000 nM.
On the same count and under the same terms, to `CCCCC(C(=O)N[C@H](Cc1ccccc1)C(=O)O)n1cc(C)cc(Cc2ccccc2)c1=O` (stereo partly drawn) [(2R)-2-({2-[5-methyl-2-oxo-3-(phenylmethyl)-1(2H)-pyridinyl]hexanoyl}amino)-3-phenylpropanoic acid] belongs 5000 nM; to `CCCCC(C(=O)N[C@@H](Cc1ccccc1)C(=O)O)n1cc(C)cc(Cc2ccccc2)c1=O` (stereo partly drawn) [(2S)-2-({2-[5-methyl-2-oxo-3-phenylmethyl)-1(2H)-pyridinyl]hexanoyl}amino)-3-phenylpropanoic acid], > 10000 nM.

(Values after patent publication US20030199692A1, “Propanoic acid derivatives that inhibit the binding of integrins to their receptors” (priority 1999, published 2003).)
